Assays:
Type in all cases: physicochemical
[1] = SPF measurement, Protocol I (Rennes): simplified O/W emulsion, UV spectrum 200-400 nm
Procedure: The SPF measurement is carried out according to the following protocol described in Le Dévéhat F., Malargé A., Couteau C., Coiffard L., Legouin B. “Evaluation of a new UV-filter screening method”, 4th symposium of the AFERP “Biodiversity, chimie des substances naturelles et medicaments” [“Biodiversity, chemistry of natural substances and medicaments”] and 3rd Franco-Pakistani symposium, Besançon (France), Jul. 16-17-18, 2010. A solution of each product dissolved in dimethyl sulfoxide is incorporated at 10% into a simplified emulsion of oil-in-water (O/W) type consisting of liquid paraffin, water and SDS at 10%, the whole mixture taken up in absolute ethanol. The UV spectrum of each solution is recorded between 200 nm and 400 nm in a 10 mm quartz cell on a Uvikon 931 UV-vis spectrophotometer and measured in comparison with a control 10% emulsion solution.
(§1) The SPF and UVA-PF values are, for the two protocols, calculated from the following equations: […]
(§2) where Eλ is the erythemogenic effect of the radiation at the wavelength λ; Sλ is the spectral solar irradiance at the wavelength λ and Tλ is the spectral transmittance of the product at the wavelength λ, λc is the critical wavelength which corresponds to the wavelength at which 90% of the area under the curve (AUC) is integrated between 290 and 400 nm. The UVA/UVB ratio corresponds more specifically to the ratio of the area under the curve between 315 and 400 nm to the area under the curve between 280 and 315 nm.

[2] = UV spectrum measurement in CHCl3 (λmax, molar extinction coefficient)
Procedure: The products are diluted in CHCl3 so as to obtain a solution at 10^−4M. The UV spectra are measured using a Uvikon 931 UV-vis spectrophotometer, Serlabo Technologies, Entraigues sur la Sorgue, France. This UV spectrum makes it possible to determine the molar extinction coefficient (mol^−1 L cm^−1) at the λmax by virtue of the Beer-Lambert law: c=A/l×C;
A=value of the absorbance at the λmax; l=length of the cuvette in cm (l=1);
C=concentration of the solution=1×10^−4 mol/l. The theoretical λmax was determined for certain products by DFT calculation.

[3] = SPF measurement, Protocol II (Nantes): O/W emulsion on PMMA plate, transmission with integrating sphere
Procedure: The SPF measurement is carried out according to the protocol described in Lohézic-Le Dévéhat F., Legouin B., Couteau C., Boustie J., Coiffard L. “Lichenic extracts and metabolites as UV filters” Journal of Photochemistry and Photobiology B: Biology 120 (2013) 17-28:
An emulsion having the following formulation is used: […]
The two phases are prepared separately. The hydrophilic phase is then added, with stirring, to the lipophilic phase. The products are finally incorporated at 1% into this O/W emulsion. 30 mg of the whole mixture are distributed over the entire surface area (25 cm^2) of a PMMA plate using a finger store. After spreading, 15 mg remain on the finger store. Three plates are prepared per product and nine measurements are carried out. The transmission measurements between 290 and 400 nm for the SPF and between 320 and 400 nm for the UVA-PF are carried out using a spectrophotometer equipped with an integrating sphere (UV Transmittance analyzer UV1000S, Labsphere, North Sutton, US).
as §1, §2

Which “λc p.I” value ([1]; critical wavelength, protocol I) does the source give for `CCCC1=CC(=O)CCN1` [Compound 5, 6-propyl-2,3-dihydropyridin-4(1H)-one] here?
Its value is 328 nm.

What about the “Colipa UVA-PF p.I, at 10%” value ([1]; protocol I, product at 10%) of the same compound?
The value was 1.66 ± 0.003.

What about the “SPF p.I, at 10%” value ([1]; protocol I, product at 10% in simplified O/W emulsion) of the same compound?
Its value is 12.17 ± 0.09.

What about the UVA/UVB ([1]; ratio of area under the curve 315-400 nm to 280-315 nm) of the same compound?
Its UVA/UVB is 0.36 ± 0.00.

What about the λmax exp ([2]; 10^−4 M in CHCl3) of the same compound?
Its λmax exp is 303 nm.

What about the “ε (molar extinction coefficient at the λmax)” value ([2]; 10^−4 M in CHCl3, 1 cm cuvette) of the same compound?
The value was 12361 L/mol/cm.

What about the “λc (p.II)” value ([3]; critical wavelength) of the same compound?
The value was 335 nm.

And the “SPF (p.II, at 1%)” value ([3]; product at 1% in O/W emulsion, PMMA plate, 290-400 nm)?
Its value is 11.18 ± 1.03.

What about the “Colipa UVA-PF (p.II, at 1%)” value ([3]; product at 1%, 320-400 nm) of the same compound?
The value was 2.58 ± 0.07.

Source: patent publication US20160067162A1, “PHOTOPROTECTIVE COMPOUNDS, COMPOSITIONS INCLUDING SAME AND USES THEREOF” (UNIVERSITE DE RENNES 1, priority 2013, published 2016)
